According to patent publication US20220142914A1, “SUSPENSION FORMULATIONS OF HIGH LOAD DISPERSIONS” (Austin Research Labs Corp., priority 2018, published 2022):

Test: Endotoxin (LPS) adsorption capacity and efficiency of sorbents
Format: binding
Settings: 96,528 ± 9,726 EU used, about 38-39.5 mg sorbent, n=6

Substance: Polymycin B, -sulfate [PMB]
- Adsorption Capacity (EU/mg) ± SD: 1,746 ± 265 EU/mg
- Adsorption Efficiency, E (%) ± SD: 69.66 ± 10.58%
- LPS Conc. Post Incubation (EU/ml) ± SD: 760 ± 265 EU/ml
- Log10 Reduction ± SD: 0.538 ± 0.142
